Source: PMC12951562, “SH2scan: Mapping SH2 Domain-Ligand Binding Selectivity for Inhibitors and Degraders” (Journal of Medicinal Chemistry, 2026)
Like-named read-outs stand apart in the source and are kept apart here. Non-standard residues stand in square brackets, D forms with d. Residues, ends and D or L forms follow the SMILES beside them. *: point of attachment. pY = N[C@@H](Cc1ccc(OP(=O)(O)O)cc1)C(=O)O; Caffeoyl = O=C(/C=C/c1ccc(O)c(O)c1)*

Assays:
Assay in all cases: biochemical
Assay type in all cases: binding
ABL2 = target: T1, ABL2 (Homo sapiens, UniProt P42684); details: for percent of DMSO vehicle control at 10 µM / remaining activity at 10 µM: read-out: percent of DMSO vehicle control
T1 construct: the DNA-tagged SH2 domain concentrations used in this study were <0.1 nM; made in house; host or cells: HEK293 (transient transfection; unpurified extract)
T1 sequence (P42684 173-263 limits assumed): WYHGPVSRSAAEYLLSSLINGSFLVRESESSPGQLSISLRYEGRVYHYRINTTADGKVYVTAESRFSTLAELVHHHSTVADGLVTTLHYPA

SOCS7 = target: T2, SOCS7 (Homo sapiens, UniProt O14512); details: for remaining activity at 10 µM: read-out: percent of DMSO vehicle control
T2 construct: made in house; host or cells: HEK293 (transient transfection), unpurified extract
T2 sequence (O14512 1-581): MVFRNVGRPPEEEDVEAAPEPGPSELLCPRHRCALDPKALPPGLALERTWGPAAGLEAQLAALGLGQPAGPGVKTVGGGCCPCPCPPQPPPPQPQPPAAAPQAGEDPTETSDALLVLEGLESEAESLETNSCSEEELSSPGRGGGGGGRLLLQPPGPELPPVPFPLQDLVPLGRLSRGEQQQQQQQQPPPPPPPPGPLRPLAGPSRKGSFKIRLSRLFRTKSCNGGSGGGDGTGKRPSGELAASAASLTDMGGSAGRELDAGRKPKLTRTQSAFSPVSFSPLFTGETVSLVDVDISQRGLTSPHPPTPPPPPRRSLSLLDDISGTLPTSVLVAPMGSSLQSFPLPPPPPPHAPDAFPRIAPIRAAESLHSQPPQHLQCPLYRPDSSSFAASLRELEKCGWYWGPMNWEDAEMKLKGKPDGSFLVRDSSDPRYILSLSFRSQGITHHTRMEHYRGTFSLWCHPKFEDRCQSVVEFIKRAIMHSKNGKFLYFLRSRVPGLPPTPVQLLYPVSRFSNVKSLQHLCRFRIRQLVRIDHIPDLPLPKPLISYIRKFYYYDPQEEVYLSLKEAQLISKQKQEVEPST

RASA1(SH2dom.N-term.) = target: T3, RASA1(SH2dom.N-term.) (Homo sapiens, UniProt P20936); details: for remaining activity at 10 µM: read-out: percent of DMSO vehicle control
T3 construct: SH2dom.N-term. denotes SH2 domain closest to N-terminus of protein; made in house; host or cells: HEK293 (transient transfection), unpurified extract
T3 sequence (P20936 181-272 limits assumed): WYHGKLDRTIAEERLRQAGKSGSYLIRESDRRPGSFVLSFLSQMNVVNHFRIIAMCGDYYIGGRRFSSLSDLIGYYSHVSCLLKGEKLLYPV

PIK3R1(SH2dom.C-term.) = target: T4, PIK3R1(SH2dom.C-term.) (Homo sapiens, UniProt P27986); details: for remaining activity at 10 µM: read-out: percent of DMSO vehicle control
T4 construct: SH2dom.C-term. denotes SH2 domain closest to C-terminus of protein; made in house; host or cells: HEK293 (transient transfection, unpurified extract)
T4 sequence (P27986 624-718 limits assumed): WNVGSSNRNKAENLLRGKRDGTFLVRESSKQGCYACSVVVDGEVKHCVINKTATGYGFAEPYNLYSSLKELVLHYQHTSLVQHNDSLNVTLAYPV

CSK = target: T5, CSK (Homo sapiens, UniProt P41240); details: for percent of DMSO vehicle control: primary screen, 10 μM
T5 construct: the DNA-tagged SH2 domain concentrations used in this study were <0.1 nM; made in house; host or cells: HEK293 (transient transfection; unpurified extract)
T5 sequence (P41240 82-171 limits assumed): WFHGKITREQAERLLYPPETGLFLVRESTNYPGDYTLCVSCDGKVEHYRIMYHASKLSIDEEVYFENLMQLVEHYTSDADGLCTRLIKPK

SOCS6 = target: T6, SOCS6 (Homo sapiens, UniProt O14544); details: for remaining activity at 10 µM: read-out: percent of DMSO vehicle control
T6 construct: made in house; host or cells: HEK293 (transient transfection), unpurified extract
T6 sequence (O14544 1-535): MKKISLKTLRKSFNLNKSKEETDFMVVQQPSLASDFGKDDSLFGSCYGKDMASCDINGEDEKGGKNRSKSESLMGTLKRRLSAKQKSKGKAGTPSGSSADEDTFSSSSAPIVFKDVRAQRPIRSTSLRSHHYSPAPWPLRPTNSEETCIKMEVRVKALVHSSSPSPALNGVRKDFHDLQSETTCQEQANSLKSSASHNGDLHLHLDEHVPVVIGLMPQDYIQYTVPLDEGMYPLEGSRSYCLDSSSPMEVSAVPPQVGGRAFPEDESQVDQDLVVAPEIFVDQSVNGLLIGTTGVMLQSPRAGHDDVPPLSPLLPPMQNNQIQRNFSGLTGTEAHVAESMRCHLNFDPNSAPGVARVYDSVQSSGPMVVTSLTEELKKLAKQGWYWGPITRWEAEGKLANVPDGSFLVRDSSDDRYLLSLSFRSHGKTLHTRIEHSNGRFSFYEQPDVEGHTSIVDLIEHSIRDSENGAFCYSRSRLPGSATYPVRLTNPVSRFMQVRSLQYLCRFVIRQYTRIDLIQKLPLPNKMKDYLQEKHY

TXK = target: T7, TXK (Homo sapiens, UniProt P42681); details: for remaining activity at 10 µM: read-out: percent of DMSO vehicle control
T7 construct: made in house; host or cells: HEK293 (transient transfection), unpurified extract
T7 sequence (P42681 1-527): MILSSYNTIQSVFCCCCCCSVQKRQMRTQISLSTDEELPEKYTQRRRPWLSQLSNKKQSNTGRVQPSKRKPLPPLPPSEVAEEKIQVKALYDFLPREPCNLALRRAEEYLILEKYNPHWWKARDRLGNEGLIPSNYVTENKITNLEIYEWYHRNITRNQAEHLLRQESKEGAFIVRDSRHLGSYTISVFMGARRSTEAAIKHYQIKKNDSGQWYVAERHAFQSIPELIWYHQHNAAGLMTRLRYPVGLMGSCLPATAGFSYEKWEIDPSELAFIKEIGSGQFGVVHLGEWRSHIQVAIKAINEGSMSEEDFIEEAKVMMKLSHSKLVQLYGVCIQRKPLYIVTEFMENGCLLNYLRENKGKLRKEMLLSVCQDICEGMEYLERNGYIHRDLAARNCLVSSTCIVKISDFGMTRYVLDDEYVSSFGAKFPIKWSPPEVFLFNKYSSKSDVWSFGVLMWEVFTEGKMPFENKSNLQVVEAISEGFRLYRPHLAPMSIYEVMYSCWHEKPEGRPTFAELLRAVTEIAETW

SH2D1B = target: T8, SH2D1B (Homo sapiens, UniProt O14796); details: for remaining activity at 10 µM: read-out: percent of DMSO vehicle control
T8 construct: made in house; host or cells: HEK293 (transient transfection), unpurified extract
T8 sequence (O14796 1-132): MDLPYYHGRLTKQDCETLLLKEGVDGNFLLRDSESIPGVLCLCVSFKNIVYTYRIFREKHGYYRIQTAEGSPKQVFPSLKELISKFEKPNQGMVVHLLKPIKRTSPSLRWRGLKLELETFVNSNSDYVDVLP

ITK = target: T9, ITK (Homo sapiens, UniProt Q08881); details: for percent of DMSO vehicle control: primary screen, 10 μM
T9 construct: the DNA-tagged SH2 domain concentrations used in this study were <0.1 nM; made in house; host or cells: HEK293 (transient transfection, unpurified extract)
T9 sequence (Q08881 239-338 limits assumed): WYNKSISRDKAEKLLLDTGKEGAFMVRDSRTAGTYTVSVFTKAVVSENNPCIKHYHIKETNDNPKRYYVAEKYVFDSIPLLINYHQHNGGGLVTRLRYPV

SRMS = target: T10, SRMS (Homo sapiens, UniProt Q9H3Y6); details: for remaining activity at 10 µM: read-out: percent of DMSO vehicle control; for KD: dose-response
T10 construct: made in house; host or cells: HEK293 (transient transfection), unpurified extract
T10 sequence (Q9H3Y6 whole entry): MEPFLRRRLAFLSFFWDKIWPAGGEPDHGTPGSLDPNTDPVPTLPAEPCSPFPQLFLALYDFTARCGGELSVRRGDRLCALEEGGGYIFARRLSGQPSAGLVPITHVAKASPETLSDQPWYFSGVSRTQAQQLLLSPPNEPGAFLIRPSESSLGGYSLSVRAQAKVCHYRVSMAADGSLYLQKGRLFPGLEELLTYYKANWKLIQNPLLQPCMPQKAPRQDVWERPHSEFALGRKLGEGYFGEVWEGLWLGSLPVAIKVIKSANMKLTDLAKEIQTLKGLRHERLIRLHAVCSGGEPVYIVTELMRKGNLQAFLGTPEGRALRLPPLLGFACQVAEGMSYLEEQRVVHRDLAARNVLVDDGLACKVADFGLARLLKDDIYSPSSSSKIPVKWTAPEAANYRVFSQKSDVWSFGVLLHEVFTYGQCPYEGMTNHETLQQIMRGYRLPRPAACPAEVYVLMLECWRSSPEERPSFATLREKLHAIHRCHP

Structure (SMILES)	percent of DMSO vehicle control (CSK)	percent of DMSO vehicle control (ITK)	percent of DMSO vehicle control at 10 µM (ABL2)	remaining activity at 10 µM (SOCS7)	remaining activity at 10 µM (RASA1(SH2dom.N-term.))	remaining activity at 10 µM (PIK3R1(SH2dom.C-term.))	remaining activity at 10 µM (SOCS6)	remaining activity at 10 µM (TXK)	remaining activity at 10 µM (SH2D1B)	remaining activity at 10 µM (SRMS)	other results
CC[C@H](C)[C@H](NC(=O)[C@H](CCC(=O)O)NC(=O)[C@H](CCC(=O)O)NC(=O)[C@H](Cc1ccc(OP(=O)(O)O)cc1)NC(C)=O)C(=O)N[C@@H](CCC(=O)O)C(N)=O [Ac-pYEEIE-NH2] (Ac-[pY]EEIE-NH2)	106.4%	122.5%									percent of DMSO vehicle control (ABL2; primary screen, 10 μM): 110.7%; percent of DMSO vehicle control (SOCS7; primary screen, 10 μM): 110.9%; percent of DMSO vehicle control (RASA1(SH2dom.N-term.); primary screen, 10 μM): 121.2%; percent of DMSO vehicle control (PIK3R1(SH2dom.C-term.); primary screen, 10 μM): 35.8±9.3%; percent of DMSO vehicle control (SOCS6; primary screen, 10 μM): 95.6±6.2%; percent of DMSO vehicle control (TXK; primary screen, 10 μM): 109.9%; percent of DMSO vehicle control (SH2D1B; primary screen, 10 μM): 47.1±1.3%; percent of DMSO vehicle control (SRMS; primary screen, 10 μM): 62.7±1.1%
CC(=O)N[C@@H](Cc1ccc(CP(=O)(O)O)cc1)C(=O)NC1(C(=O)N[C@@H](CC(N)=O)C(=O)NCCCc2c(O)ccc3ccccc23)CCCCC1 [CGP78850]	119.6±4.5%	113.6±8.8%	6.2 ± 0.1%	126 ± 4.2%	47.6 ± 2.5%	0%	63.3 ± 5.3%	74.4 ± 2.5%	77.3 ± 6.6%	65.3 ± 5.9%	Kd (ABL2): 1100 ± 120 nM; Kd (PIK3R1(SH2dom.C-term.)): 150 nM
CC[C@H](C)[C@H](NC(=O)[C@H](CCC(=O)O)NC(=O)[C@H](CCC(=O)O)NC(=O)[C@H](Cc1ccc(OP(=O)(O)O)cc1)NC(=O)/C=C/c1ccc(O)c(O)c1)C(=O)N[C@@H](CCC(=O)O)C(=O)O [Caffeic acid-pYEEIE] (Caffeoyl-[pY]EEIE-OH)	103.0±4.8%	3.1±0.3%	0.7 ± 0.4%	0.5 ± 0.4%	0.1%	0.2 ± 0.1%	8.2 ± 0.1%	2.7 ± 0.3%	12.9 ± 2.3%	0.1%	Kd (ABL2): 1400 ± 360 nM; Kd (SOCS7): 280 ± 140 nM; Kd (RASA1(SH2dom.N-term.)): 230 ± 410 nM; Kd (PIK3R1(SH2dom.C-term.)): 140 ± 100 nM; Kd (SOCS6): 1900 ± 240 nM; Kd (TXK): 950 ± 250 nM; Kd (SH2D1B): 65 ± 14 nM; Kd (ITK): 570 ± 630 nM; Kd (SRMS): 1.2 ± 0.73 nM
O=C(CCl)Nc1cccc(CNC(=O)[C@H](Cc2ccc(OP(=O)(O)O)cc2)NC(=O)Cc2ccc(F)cc2)c1 [MN551]	105.0%	51.4±1.1%									remaining activity at 10 µM (ABL2; primary screen, 10 μM): 94.6 ± 1.6%; Kd (SOCS7; dose-response, read-out: KD): 8100 nM; remaining activity at 10 µM (SOCS7; primary screen, 10 μM): 21.9 ± 5%; remaining activity at 10 µM (RASA1(SH2dom.N-term.); primary screen, 10 μM): 94.2 ± 3%; remaining activity at 10 µM (PIK3R1(SH2dom.C-term.); primary screen, 10 μM): 52.4%; remaining activity at 10 µM (SOCS6; primary screen, 10 μM): 65.2 ± 0.1%; remaining activity at 10 µM (TXK; primary screen, 10 μM): 89.1%; remaining activity at 10 µM (SH2D1B; primary screen, 10 μM): 63.2 ± 6.6%; KD (SRMS): No Hit; remaining activity at 10 µM (SRMS; primary screen, 10 μM): 1.3 ± 0.6%
NC(=O)CC[C@H](NC(=O)[C@@H]1CC[C@@H]2CCN(C(=O)CCCCCC#Cc3cccc4c3CN(C3CCC(=O)NC3=O)C4=O)C[C@H](NC(=O)c3cc4cc(C(F)(F)P(=O)(O)O)ccc4[nH]3)C(=O)N21)C(=O)NC(c1ccccc1)c1ccccc1 (stereo partly shown) [SD-36]	97.3±14.8%	94.0±11.1%	126%	271%	64.7 ± 0.3%	94.6 ± 6.5%	57.2 ± 3.4%	101 ± 9.7%	99.6 ± 1.3%	102 ± 1.9%	
CC(=O)N1CC[C@H]2CC[C@@H](C(=O)N[C@@H](CCC(N)=O)C(=O)NC(c3ccccc3)c3ccccc3)N2C(=O)[C@@H](NC(=O)c2cc3cc(C(F)(F)P(=O)(O)O)ccc3[nH]2)C1 [SI-109]	121.2%	124.2%	122%	124%	123%	128%	91.9 ± 7.4%	118%	223%	123%	
C/C(=C\C(=O)N[C@H](C(=O)N1CCC[C@H]1C(=O)N(c1ccccc1)c1ccc(I)cc1)C(C)(C)C)c1ccc(OP(=O)(O)O)cc1 [STAT6-IN-1]	26.3±0.8%	0.0±0.0%									remaining activity at 10 µM (ABL2; primary screen, 10 μM): 98.1 ± 4.2%; KD (SOCS7; dose-response): No Hit; remaining activity at 10 µM (SOCS7; primary screen, 10 μM): 34.6 ± 0.1%; remaining activity at 10 µM (RASA1(SH2dom.N-term.); primary screen, 10 μM): 50.2 ± 0.4%; Kd (PIK3R1(SH2dom.C-term.); dose-response, read-out: KD): 3400 ± 1100 nM; remaining activity at 10 µM (PIK3R1(SH2dom.C-term.); primary screen, 10 μM): 12.3 ± 0.1%; Kd (CSK; dose-response, read-out: KD): 3050 ± 490 nM; remaining activity at 10 µM (SOCS6; primary screen, 10 μM): 44.1 ± 2.1%; remaining activity at 10 µM (TXK; primary screen, 10 μM): 87.1 ± 5.9%; remaining activity at 10 µM (SH2D1B; primary screen, 10 μM): 49.6 ± 1.2%; Kd (ITK; dose-response, read-out: KD): 10300 nM; KD (SRMS): No Hit; remaining activity at 10 µM (SRMS; primary screen, 10 μM): 7.6 ± 0.5%
